Test results published in US5486516A, “Furopyrimidine derivatives” (DowElanco, priority 1993, dated 1996).

Legend:
[1] = test system: Erysiphe graminis tritici (powdery mildew); assay: Plant pathology screen (Test 1), powdery mildew on wheat; conditions: Blumeria graminis, in Triticum aestivum, foliar, read-out: POWD MDEW control rating
Procedure: (§5) The test compounds were formulated for application by dissolving 50 mg of the compound into 1.25 ml of solvent. The solvent was prepared by mixing 50 ml of "Tween 20" (polyoxyethylene (20) sorbitan monolaurate emulsifier) with 475 ml of acetone and 475 ml of ethanol. The solvent/compound solution was diluted to 125 ml with deionized water. The resulting formulation contains 400 ppm test chemical. Lower concentrations were obtained by serial dilution with the solvent-surfactant mixture.
(§6) The formulated test compounds were applied by foliar spray.
(§7) The formulated technical compounds were sprayed on all foliar surfaces of the host plants (or cut berry) to past run-off. Single pots of each host plant were placed on raised, revolving pedestals in a fume hood. Test solutions were sprayed on all foliar surfaces. All treatments were allowed to dry and the plants were inoculated with the appropriate pathogens within 2-4 hours.
(§8) The effectiveness of test compounds in controlling disease was rated using the following scale.

[2] = test system: Pseudoperonospora cubensis (downy mildew); assay: Plant pathology screen (Test 1), downy mildew on squash; conditions: foliar, read-out: DOWN MDEW control rating
[3] = test system: Pyricularia oryzae (rice blast); assay: whole plant or invertebrate; type: in vivo; conditions: foliar, read-out: RICE BLAST control rating
[4] = test system: Puccinia recondita tritici (leaf rust); assay: Plant pathology screen (Test 1), leaf rust on wheat; conditions: in Triticum aestivum, foliar, read-out: LEAF RUST control rating
Procedure: This screen was used to evaluate the efficacy of the present compounds against a variety of different organisms that cause plant diseases.
as §5, §6, §7, §8

[5] = test system: melon aphids (Aphis gossvpii Glover); assay: Mite/insect screen, melon aphids; type: in vivo; conditions: Aphis, sprayed leaves, read-out: MA results (percent mortality); for mortality at 200 ppm: rate 200 ppm; for mortality at 400 ppm: rate 400 ppm
Procedure: (§1) The compounds of Examples were tested for miticidal and insecticidal activity in the following mite/insect screen.
(§2) Each test compound was formulated by dissolving the compound in acetone/alcohol (50:50) mixture containing 23 g of "TOXIMUL R" (sulfonate/nonionic emulsifier blend) and 13 g of "TOXIMUL S" (sulfonate/nonionic emulsifier blend) per liter. These mixtures were then diluted with water to give the indicated concentrations.
(§3) Twospotted spider mites (Tetranychus urticae Koch) and melon aphids (Aphis gossvpii Glover) were introduced on squash cotyledons and allowed to establish on both leaf surfaces. Other plants in the same treatment pot were left uninfested. The leaves were then sprayed with 5 ml of test solution using a DeVilbiss atomizing sprayer at 10 psi. Both surfaces of the leaves were covered until runoff, and then allowed to dry for one hour. Two uninfested leaves were then excised and placed into a Petri dish containing larval southern armyworm (Spodopetra eridania Cramer).
(§4) After standard exposure periods, percent mortality and phytotoxicity were evaluated. […] The following abbreviations are used in Table 3:
MA refers to melon aphids.

[6] = test system: Southern corn rootworm (Diabrotica undecimpuctata howardi Barber); assay: Mite/insect screen, corn rootworm; type: in vivo; conditions: Diabrotica, soil, read-out: CRW results (percent mortality); for mortality at 12 ppm: CRW rate 12.00 ppm; for mortality at 24 ppm: CRW rate 24.00 ppm
Procedure: as §1, §2
Activity on Southern corn rootworm (Diabrotica undecimpuctata howardi Barber) was evaluated by adding two ml of tap water, a presoaked corn seed, and 15 g of dry sandy soil to a one ounce plastic container. The soil was treated with 1 mL of test solution containing a predetermined concentration of test compound. After six to 12 hours of drying, five 2-3 instar corn rootworm larvae were added to the individual cups, which were then capped and held at 23° C.
as §4
CRW refers to corn rootworm

[7] = test system: Twospotted spider mites (Tetranychus urticae Koch); assay: Mite/insect screen, twospotted spider mites; type: in vivo; conditions: Tetranychus urticae, sprayed leaves, read-out: SM results (percent mortality); for mortality at 200 ppm: rate 200 ppm; for mortality at 400 ppm: rate 400 ppm
Procedure: as §1, §2, §3, §4
SM refers to twospotted spider mites

[8] = test system: southern armyworm (Spodopetra eridania Cramer); assay: Mite/insect screen, Southern armyworm; type: in vivo; conditions: Spodoptera eridania, sprayed leaves, read-out: SAW results (percent mortality); for mortality at 200 ppm: rate 200 ppm; for mortality at 400 ppm: rate 400 ppm
Procedure: as §1, §2, §3, §4
SAW refers to Southern armyworm

[9] = test system: Botrytis cinerea (gray mold); assay: Plant pathology screen (Test 1), gray mold on grape berries; conditions: read-out: GRAY MOLD control rating

Row | Compound | pest or weed control at 400 µg/mL [1] [%] | pest or weed control at 400 µg/mL [2] [%] | pest or weed control at 400 µg/mL [3] [%] | pest or weed control at 400 µg/mL [4] [%] | mortality at 200 ppm [5] [%] | mortality at 400 ppm [5] [%] | mortality at 12 ppm [6] [%] | mortality at 24 ppm [6] [%] | mortality at 200 ppm [7] [%] | mortality at 400 ppm [7] [%] | mortality at 200 ppm [8] [%] | mortality at 400 ppm [8] [%] | pest or weed control at 400 µg/mL [9] [%]
1 | COc1ccc(CCNc2ncnc3oc(C)c(C)c23)cc1 [Example 1, N-[2-(4-methoxyphenyl)ethyl]-5,6-dimethylfuro[2,3-d]pyrimidin-4-amine] | 0 to 19 | 20 to 89 | 90 to 100 | 20 to 89 | 80 | 0 | 0 | 100 | 0 | 0 | 0 | 0 | 0 to 19
2 | CCCC(C)(CC)Oc1ccc(CCOc2ncnc3oc(C)c(C)c23)cc1 (centres unmarked) [Example 74, 5,6-dimethyl-4-[2-[4-(1-ethyl-1-methylbutoxy)phenyl]ethoxy]furo[2,3-d]pyrimidine] | 0 to 19 | 20 to 89 | 0 to 19 | 0 to 19 | – | 90 | – | 0 | – | 100 | – | 0 | 0 to 19
3 | Cc1oc2ncnc(OCCc3cccs3)c2c1C [Example 61, 5,6-dimethyl-4-[2-(2-thienyl)ethoxy]furo[2,3-d]pyrimidine] | 90 to 100 | 90 to 100 | 20 to 89 | 20 to 89 | 90 | 0 | 0 | 0 | 90 | 0 | 0 | 0 | 0 to 19
4 | COc1ccccc1Oc1ncnc2oc(C)c(C)c12 [Example 28, 5,6-dimethyl-4-(2-methoxyphenoxy)furo[2,3-d]pyrimidine] | 0 to 19 | 0 to 19 | 0 to 19 | 0 to 19 | 30 | 0 | 0 | 0 | 90 | 0 | 0 | 0 | 0 to 19
5 | Cc1oc2ncnc(Oc3cccc(C(F)(F)F)c3)c2c1C [Example 63, 5,6-dimethyl-4-[3-(trifluoromethyl)phenoxy]furo[2,3-d]pyrimidine] | 0 to 19 | 20 to 89 | 0 to 19 | 0 to 19 | 0 | 80 | 0 | 0 | 0 | 50 | 0 | 0 | 0 to 19
6 | Cc1oc2ncnc(OCCc3ccc(Oc4ccc(C(F)(F)F)cc4)cc3)c2c1C [Example 41, 5,6-dimethyl-4-[2-[4-[4-(trifluoromethyl)phenoxy]phenyl]ethoxy]furo[2,3-d]pyrimidine] | 90 to 100 | 90 to 100 | 20 to 89 | 90 to 100 | 0 | 100 | 0 | 60 | 0 | 100 | 0 | 0 | 0 to 19
7 | Cc1oc2ncnc(NCCc3ccc(OC(F)(F)F)cc3)c2c1C [Example 68, 5,6-dimethyl-N-[2-[4-(trifluoromethoxy)phenyl]ethyl]furo[2,3-d]pyrimidin-4-amine] | 20 to 89 | 90 to 100 | 90 to 100 | 20 to 89 | – | 90 | – | 0 | – | 30 | – | 100 | 0 to 19
